Numbers after ± are expanded uncertainties.
Details: 101.33 kPa, Liquid, Vibrating tube method

O [water]
Details | mass density [kg/m3]
283.15 K | 999.66 ± 1.9
308.15 K | 994.11 ± 1.9
313.15 K | 992.32 ± 1.9
318.15 K | 990.34 ± 1.9
323.15 K | 988.18 ± 1.9
328.15 K | 985.87 ± 1.9
333.15 K | 983.4 ± 1.9
338.15 K | 980.78 ± 1.9
343.15 K | 978.02 ± 1.9
348.15 K | 975.13 ± 1.9
353.15 K | 972.11 ± 1.9
358.15 K | 968.95 ± 1.9
363.15 K | 965.71 ± 1.9

Reference: the NIST ThermoML archive (doi:10.1021/acs.jced.8b00814)
